Data on one substance can be found in patent US6297043A, “Mumbaistatin, a process for it's production and its use as a pharmaceutical” (Aventis Pharma Deutschland GmbH, priority 1998, dated 2001).

Experiment [1] concerns rat liver microsomal glucose-6-phosphate translocase. The experiment is described as follows: inhibition of rat liver microsomal glucose-6-phosphate translocase activity. The experiment is classed as biochemical. Particulars: translocase versus phosphatase activity. An excerpt: (§1) If desired, DESMOPHEN® (polypropylene oxide) may be used as an antifoam agent in the fermenters. […] In the resulting culture broth, Mumbaistatin is present primarily in the culture filtrate and can thus be recovered by extraction of the culture filtrate with a water immiscible solvent such as, for example, ethyl acetate, dichloromethane, chloroform or butanol at pH 5-8, or by hydrophobic interaction chromatography using polymeric resins such as DIAION® HP-20 (Mitsubishi Chemical Industries Limited, Japan), AMBERLITE® XAD (Rohm and Haas Industries, U.S.A.), or activated charcoal, or by ion exchange chromatography at pH 5-8.
(§2) The production of Mumbaistatin was monitored by measuring the inhibition of glucose-6-phosphate translocase.
(§3) The production of the compound was monitored by measuring the inhibition of glucose-6-phosphate translocase.

For experiment [2], the target named is T1, rat liver microsomal glucose-6-phosphate translocase (Rattus norvegicus, UniProt F7EWB7).
T1 construct: rat liver microsomal glucose-6-phosphate translocase; from tissue; host or cells: rat liver microsomes
T1 sequence (F7EWB7 1-429): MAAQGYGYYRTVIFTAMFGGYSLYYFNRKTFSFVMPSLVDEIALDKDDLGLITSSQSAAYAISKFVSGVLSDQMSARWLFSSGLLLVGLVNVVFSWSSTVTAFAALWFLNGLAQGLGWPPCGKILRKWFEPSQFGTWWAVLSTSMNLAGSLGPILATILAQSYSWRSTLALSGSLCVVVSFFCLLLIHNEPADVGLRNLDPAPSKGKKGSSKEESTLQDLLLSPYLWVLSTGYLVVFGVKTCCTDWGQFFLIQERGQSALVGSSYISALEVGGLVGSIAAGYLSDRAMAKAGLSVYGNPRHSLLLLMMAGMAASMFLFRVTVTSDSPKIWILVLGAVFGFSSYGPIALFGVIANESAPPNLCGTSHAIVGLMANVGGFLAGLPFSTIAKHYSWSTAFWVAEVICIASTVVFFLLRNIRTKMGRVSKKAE
Described as above. The format is biochemical.
Source text: as §1, §2, §3

For experiment [3], the system named is glucagon-induced glycogenolysis. The experiment is described as follows: glucose output of isolated rat hepatocytes: glucagon-induced glycogenolysis. The experiment is classed as cell-based. How it is done: (§4) Mumbaistatin was further evaluated in isolated rat hepatocytes for its effect on glucose output. It inhibits both fructose-induced gluconeogenesis and glucagon-induced glycogenolysis with IC50 values of about 0.3 μM and 0.6 μM, respectively.

The test system of experiment [4] is phosphate/pyrophosphate translocase. The experiment is described as follows: effect on activity of phosphate/pyrophosphate translocase. The experiment is classed as biochemical.
Experiment [5] concerns fructose-induced gluconeogenesis. The experiment is described as follows: glucose output of isolated rat hepatocytes: fructose-induced gluconeogenesis. The format is cell-based. On the procedure: as §4

For the substance Mumbaistatin, the “specificity for translocase over phosphatase” value in experiment [1] was “high degree of specificity for translocase”. Further, in experiment [2], the “mode of inhibition of glucose-6-phosphate translocase” value was “reversible and competitive inhibitor”. Besides, the IC50 is about 25 nM in experiment [2] (rat liver microsomal), about 600 nM in experiment [3] and about 300 nM in experiment [5]. In addition, the “inhibition of glucose-6-phosphate translocase” value in experiment [2] (rat liver microsomal) is recorded as “potently inhibits”. Besides, the “effect on activity of phosphate/pyrophosphate translocase” value in experiment [4] is recorded as “did not affect”.

As a reminder, the IC50 is the concentration needed to halve the response being measured.
